# Laboratory results from patent US20070274907A1 (priority 2004, published 2007).
# Assays:
# [1] = system: squamous cell carcinoma or adenocarcinoma; conditions: full series of 4 treatments, 10 mg MMC each, bronchial artery; cited from earlier work
# bronchogenic carcinoma = conditions: 39 patients; cited from earlier work
# [2] = Mitomycin binding kinetics to magnetically targetable carrier particle; format: physicochemical; conditions: for initial mitomycin remaining in the binding supernatant: 5 minutes, 25 mg carrier, 0.755 mg/mL mitomycin
# Experimental: Mitomycin binding kinetics was measured at room temperature, and 40° C. […] The mixture was incubated at room temperature and at 40° C. for various time periods up to 60 minutes. The concentration of mitomycin remaining in the binding supernatant was obtained by filtering the sample at a predefined time point and then analyzing by HPLC to determine percentage bound.
# swine = assay: 28 day toxicity study, pulmonary artery delivery with magnetic targeting
# Experimental: Each animal received a single dose of either control or test article at fixed concentrations by pulmonary artery infusion. […] The vehicle control group received 16 mL of vehicle.
# A test article was administered as a single infusion to Groups 1 and 2 and as two infusions in all other groups. A 15 minute magnetic retention period separated the two infusions in Groups 3 and 4. The infusion rate was maintained at a flow rate of 2 mL/min. At the end of the 15 minute magnetic retention period, an angiogram was performed to verify arterial patency in the selected lung lobe. Assessment of toxicity following treatment included laboratory tests in which blood samples were collected for evaluation of serum chemistry, hematology and coagulation parameters prior to dosing (Day 0) and post-dosing on Days 1, 3, 7, 14, 21 and 28.
# [3] = system: squamous cell carcinoma of the lung; conditions: 10 mg MMC intra-arterially, after 28 to 48 days, 9 patients; cited from earlier work
# [4] = Toxicokinetic analysis of plasma MMC after pulmonary artery infusion
compound,measurement,setting,value
"CO[C@@]12[C@H](COC(N)=O)C3=C(C(=O)C(C)=C(N)C3=O)N1C[C@@H]1N[C@@H]12 [MMC, Mitomycin C]",patients with a 20% to 50% decrease of the tumor area,[1],3 patients
same,patients with a 50% decrease of the tumor area,[1],5 patients
same,neurologic complications,bronchogenic carcinoma,No neurologic complications occurred
same,side effects,bronchogenic carcinoma,insignificant
same,initial mitomycin remaining in the binding supernatant,[2]; 40° C,3%
same,initial mitomycin remaining in the binding supernatant,[2]; room temperature,2%
same,time to adsorption equilibrium,[2]; both room temperature and 40° C,less than 5 minutes
same,stability of mitomycin solution during incubation,"[2]; room temperature and 40° C, up to 60 minutes",stable at both temperatures
same,stomach ulceration,"swine; 28 days post-dosing, not dose-related",stomach ulceration was seen in some animals
same,clinical signs,"swine; MMC alone group, 4 mg MMC",transient diarrhea in two animals
same,embolization (post-treatment angiography),"swine; MMC control, 4 mg MMC",no embolization
same,"complete remission of the tumor, patients",[3],2 patients
same,"partial remission, patients",[3],2 patients
same,Cmax,"[4]; Yorkshire, pig, in vivo, 4 mg",178 ± 27.1 ng/mL
same,Vd,"[4]; Yorkshire, pig, in vivo, 4 mg",47.3 ± 13.2 L
same,clearance,"[4]; Yorkshire, pig, in vivo, 4 mg",618 ± 54 mL/min
same,half-life,"[4]; Yorkshire, pig, in vivo, 4 mg, β or λ t1/2, swine, 4 mg MMC",67 ± 16.7 min
same,half-life,"[4]; Yorkshire, swine, in vivo, distribution half-life, swine, summary over dose groups",~8 min
same,half-life,"[4]; Yorkshire, swine, in vivo, elimination half-life, swine, summary over dose groups",~65 min
same,AUC,"[4]; swine, 4 mg MMC, pulmonary artery infusion, plasma MMC",6507 ± 568 (ng/ml) × min
